Results from US6362165B1, “Hydroxyphenyl derivatives with HIV integrase inhibitory properties” (Pharmacor Inc., priority 1999, dated 2002).

How the values were obtained:
HIV-1 integrase [1] = target: T1, HIV-1 integrase (Human immunodeficiency virus type 1 group M subtype B, UniProt P04585); experiment: HIV-1 integrase inhibition assay (procedure of Burke et al.; radiolabeled duplex substrate, U5 end of HIV LTR); format: biochemical
Procedure: For the purposes of Table 1 (and Table 2) the HIV-1 integrase inhibition assay was carried out following a known procedure (Burke, Jr. T. R. et al., J. Med. Chem. 38, 4171-4178 (1995)). A suitable radiolabeled duplex substrate corresponding to the U5 end of the HIV LTR was used.

HIV-1 integrase [2] = target: T1, HIV-1 integrase; experiment: HIV-1 integrase inhibition assay (based on procedure of Hazuda et al.); format: biochemical; details: Table 3, general formula I
Source text: For the purposes of Table 3 the HIV-1 integrase inhibition assay was based on a known procedure (Hazuda, D. J. et al., Nucleic Acids Res. 22, 1121-1122 (1994)).

[3] = Table 1, 3,4-dihydroxy derivative of the root amino acid, formula Ic, read-out: Anti-integrase activity (IC50) 3,4-dihydroxy derivative
[4] = Table 1, 4-hydroxy derivative of the root amino acid, formula Ic, read-out: Anti-integrase activity (IC50) 4-hydroxy derivative
[5] = Table 2, dipeptide derivatives of I, read-out: Anti-integrase activity (IC50)
[6] = Nα-caffeoyl derivative of the root amino acid, read-out: Anti-integrase activity (IC50) Nα-Caffeoyl derivative
[7] = other Nα-3,4-dihydroxyphenyl derivative of the root amino acid, read-out: Anti-integrase activity (IC50) Other Nα-3,4-dihydroxyphenyl derivative

Compound: O=C(NC(Cc1ccc(O)c(F)c1)C(=O)NCCc1ccc(O)c(O)c1)c1ccc(O)c(O)c1 (racemic) [Example 48, N-[N′-(3′,4′-dihydroxybenzoyl)-DL-3-fluorotyrosinyl]-dopamine]
- IC50 (HIV-1 integrase [1]; [3]): 1.4 µM

Compound: O=C(NC(Cc1cccc(O)c1)C(=O)NCCc1ccc(O)c(O)c1)c1ccc(O)c(O)c1 (racemic) [Example 50, N-[N′-(3′,4′-dihydroxybenzoyl)-DL-m-tyrosyl]-dopamine]
- IC50 (HIV-1 integrase [1]; [3]): 1.3 µM

Compound: O=C(N[C@H](Cc1ccc(O)cc1)C(=O)NCCc1ccc(O)c(O)c1)c1ccc(O)c(O)c1 [Example 10, N-[N′-(3′,4′-dihydroxybenzoyl)-D-tyrosyl]-dopamine]
- IC50 (HIV-1 integrase [1]; [3]): 67 µM

Compound: O=C(N[C@@H](Cc1ccc(O)cc1)C(=O)NCCc1ccc(O)c(O)c1)c1ccc(O)cc1 [Example 11, N-[N′-(p-hydroxybenzoyl)-L-tyrosyl]-dopamine]
- IC50 (HIV-1 integrase [1]; [4]): 88 µM

Compound: O=C(N[C@@H](Cc1ccc(O)cc1)C(=O)NCCc1ccc(O)c(O)c1)c1ccc(O)c(O)c1 [Example 12, N-[N′-(3′,4′-dihydroxybenzoyl)-L-tyrosyl]-dopamine]
- IC50 (HIV-1 integrase [1]; [3]): 8 µM

Compound: O=C(N[C@@H](Cc1ccccc1)C(=O)NCCc1ccc(O)c(O)c1)c1ccc(O)cc1 [Example 13, N-[N′-(p-hydroxybenzoyl)-L-phenylalanyl]-dopamine]
- IC50 (HIV-1 integrase [1]; [4]): > 200 µM

Compound: O=C(N[C@@H](Cc1ccccc1)C(=O)NCCc1ccc(O)c(O)c1)c1ccc(O)c(O)c1 [Example 14, N-[N′-(3′,4′-dihydroxybenzoyl)-L-phenylalanyl]-dopamine]
- IC50 (HIV-1 integrase [1]; [3]): 45 µM

Compound: O=C(N[C@@H](Cc1ccc(O)c(O)c1)C(=O)NCCc1ccc(O)c(O)c1)c1ccc(O)c(O)c1 [Example 16, N-[N′-(3′,4′-dihydroxybenzoyl)-L-3,4-dihydroxy-phenylalanyl]-dopamine]
- IC50 (HIV-1 integrase [1]; [3]): 8 µM

Compound: C[C@H](NC(=O)c1ccc(O)cc1)C(=O)NCCc1ccc(O)c(O)c1 [Example 19, N-[N′-(p-hydroxybenzoyl)-L-alanyl]-dopamine]
- IC50 (HIV-1 integrase [1]; [4]): 160 µM

Compound: C[C@H](NC(=O)c1ccc(O)c(O)c1)C(=O)NCCc1ccc(O)c(O)c1 [Example 20, N-[N′-(3′, 4′-dihydroxybenzoyl)-L-alanyl]-dopamine]
- IC50 (HIV-1 integrase [1]; [3]): 71 µM

Compound: O=C(CC[C@H](NC(=O)c1ccc(O)cc1)C(=O)NCCc1ccc(O)c(O)c1)NCCc1ccc(O)c(O)c1 [Example 21, N-[′-(p-hydroxybenzoyl)-6-(3-hydroxytyramine)-L-glutamyl]-dopamine]
- IC50 (HIV-1 integrase [1]; [4]): 64 µM

Compound: O=C(CC[C@H](NC(=O)c1ccc(O)c(O)c1)C(=O)NCCc1ccc(O)c(O)c1)NCCc1ccc(O)c(O)c1 [Example 22, N-[′-(3′,4′-dihydroxybenzoyl)-δ-(3-hydroxytyramine)-L-glutamyl]-dopamine]
- IC50 (HIV-1 integrase [1]; [3]): 11 µM

Compound: O=C(CC[C@H](NC(=O)c1ccc(O)c(O)c1)C(=O)NCCc1ccc(O)c(O)c1)OCc1ccccc1 [Example 23, N-[′-(3′,4′-dihydroxybenzoyl)-δ-benzyloxy-L-glutamyl]-dopamine]
- IC50 (HIV-1 integrase [1]; [3]): 26 µM

Compound: CC(C)C[C@H](NC(=O)c1ccc(O)cc1)C(=O)NCCc1ccc(O)c(O)c1 [Example 25, N-[N′-(p-hydroxybenzoyl)-L-leucyl]-dopamine]
- IC50 (HIV-1 integrase [1]; [4]): > 200 µM

Compound: CC(C)C[C@H](NC(=O)c1ccc(O)c(O)c1)C(=O)NCCc1ccc(O)c(O)c1 [Example 26, N-[N′-(3′,4′-dihydroxybenzoyl)-L-leucyl]-dopamine]
- IC50 (HIV-1 integrase [1]; [3]): 45 µM

Compound: O=C(NCCc1ccc(O)c(O)c1)[C@@H]1CCCN1C(=O)c1ccc(O)cc1 [Example 27, N-[N′-(p-hydroxybenzoyl)-L-prolyl]-dopamine]
- IC50 (HIV-1 integrase [1]; [4]): > 200 µM

Compound: O=C(NCCc1ccc(O)c(O)c1)[C@@H]1CCCN1C(=O)c1ccc(O)c(O)c1 [Example 28, N-[N′-(3′,4′-dihydroxybenzoyl)-L-prolyl]-dopamine]
- IC50 (HIV-1 integrase [1]; [3]): 80 µM

Compound: O=C(N[C@@H](Cc1c[nH]c2ccccc12)C(=O)NCCc1ccc(O)c(O)c1)c1ccc(O)c(O)c1 [Example 30, N-[N′-(3′,4′-dihydroxybenzoyl)-L-tryptophyl]-dopamine]
- IC50 (HIV-1 integrase [1]; [3]): 17 µM

Compound: O=C(N[C@@H](Cc1c[nH]cn1)C(=O)NCCc1ccc(O)c(O)c1)c1ccc(O)c(O)c1 [Example 33]
- IC50 (HIV-1 integrase [1]; [3]): 0.1 µM

Compound: O=C(N[C@@H](Cc1ccc(O)cc1)C(=O)N[C@@H](Cc1ccc(O)cc1)C(=O)O)c1ccc(O)c(O)c1 [Example 36, N-[N′-(3′,4′-dihydroxybenzoyl)-L-tyrosyl]-L-tyrosine]
- IC50 (HIV-1 integrase [1]; [5]): 177 µM

Compound: O=C(O)CNC(=O)[C@H](Cc1ccc(O)cc1)NC(=O)c1ccc(O)c(O)c1 [Example 37, N-[N′-(3′,4′-dihydroxybenzoyl)-L-tyrosyl]-glycine]
- IC50 (HIV-1 integrase [1]; [5]): > 200 µM

Compound: O=C(CNC(=O)c1ccc(O)c(O)c1)N[C@@H](Cc1ccc(O)cc1)C(=O)O [Example 39, N-[N′-(3′,4′-dihydroxybenzoyl)-glycyl]-L-tyrosine]
- IC50 (HIV-1 integrase [1]; [5]): > 200 µM

Compound: O=C(C[C@H](NC(=O)[C@H](Cc1ccc(O)cc1)NC(=O)c1ccc(O)c(O)c1)C(=O)NCCc1ccc(O)c(O)c1)OCc1ccccc1 [Example 41, N-[N′-[N″-(3″,4″-dihydroxybenzoyl)-L-tyrosyl]-L-γ-O-benzyl-aspartyl]-dopamine]
- IC50 (HIV-1 integrase [1]; [5]): 20 µM

Compound: O=C(CC[C@H](NC(=O)c1ccc(O)c(O)c1)C(=O)OCc1ccccc1)NCCc1ccc(O)c(O)c1 [Example 49, N-(3,4-dihydroxybenzoyl)-δ-N′-(3′,4′-dihydroxyphenethyl)-L-glutamine α-benzyl ester]
- IC50 (HIV-1 integrase [1]; [3]): 2.2 µM

Compound: O=C(N[C@@H](Cc1ccc(O)cc1)C(=O)N[C@@H](Cc1ccc(O)cc1)C(=O)NCCc1ccc(O)c(O)c1)c1ccc(O)c(O)c1 [Example 51]
- IC50 (HIV-1 integrase [1]; [5]): 17 µM

Compound: O=C(C=Cc1ccc(O)c(O)c1)NC(CC(=O)NCCc1ccc(O)c(O)c1)C(=O)OCc1ccccc1 [Example 52, Nα-caffeoyl-Nγ-(3-hydroxytyramine)-L-aspartic acid benzyl ester]
- IC50 (HIV-1 integrase [2]; [6]): 2.2 µM

Compound: O=C(/C=C/c1ccc(O)c(O)c1)N[C@@H](Cc1ccc(O)c(O)c1)C(=O)NCCc1ccc(O)c(O)c1 [Example 54, N-(N′-caffeoyl-L-3,4-dihydroxyphenylalanyl)dopamine]
- IC50 (HIV-1 integrase [2]; [6]): 0.62 µM

Compound: O=C(/C=C/c1ccc(O)c(O)c1)N[C@@H](Cc1ccc(O)c(O)c1)C(=O)NCc1ccc(O)c(O)c1 [Example 55, N-(N′-caffeoyl-L-3,4-dihydroxyphenylalanyl)-3,4-dihydroxybenzylamine]
- IC50 (HIV-1 integrase [2]; [6]): 0.38 µM

Compound: O=C(N[C@@H](Cc1ccc(O)cc1)C(=O)NCc1ccc(O)c(O)c1)c1ccc(O)c(O)c1 [Example 56, N-[N′-(3′,4′-dihydroxybenzoyl)-L-tyrosyl]-3,4-dihydroxybenzylamine]
- IC50 (HIV-1 integrase [2]; [7]): 0.78 µM

Compound: O=C(Cc1ccc(O)c(O)c1)N[C@@H](Cc1ccc(O)c(O)c1)C(=O)NCCc1ccc(O)c(O)c1 [Example 57, N-[N′-(3′,4′-dihydroxyphenylacetyl)-L-3,4-dihydroxyphenylalanyl]dopamine]
- IC50 (HIV-1 integrase [2]; [7]): 0.106 µM

Compound: O=C(N[C@@H](CS)C(=O)NCCc1ccc(O)c(O)c1)c1ccc(O)c(O)c1 [Example 58, N-[N′-(3′,4′-dihydroxybenzoyl)-L-cysteinyl]dopamine]
- IC50 (HIV-1 integrase [2]; [7]): 0.21 µM

Compound: O=C(/C=C/c1ccc(O)c(O)c1)N[C@@H](CO)C(=O)NCCc1ccc(O)c(O)c1 [Example 59, N-(N′-caffeoyl-L-seryl)dopamine]
- IC50 (HIV-1 integrase [2]; [6]): 0.14 µM

Compound: O=C(C=Cc1ccc(O)c(O)c1)NC(CCC(=O)NCCc1ccc(O)c(O)c1)C(=O)NCCc1ccc(O)c(O)c1 [Example 60, N-[N′-caffeoyl-Nα-(3-hydroxytyramine)-L-glutamyl]dopamine]
- IC50 (HIV-1 integrase [2]; [6]): 0.105 µM

Compound: O=C(/C=C/c1ccc(O)c(O)c1)N[C@@H](CC(=O)OCc1ccccc1)C(=O)NCCc1ccc(O)c(O)c1 [Example 61, N-(N′-caffeoyl-Oγ-benzyl-L-aspartyl)dopamine]
- IC50 (HIV-1 integrase [2]; [6]): 3.5 µM

Compound: O=C(O)C[C@H](NC(=O)/C=C/c1ccc(O)c(O)c1)C(=O)NCCc1ccc(O)c(O)c1 [Example 62, N-(N′-caffeoyl-L-aspartyl)dopamine]
- IC50 (HIV-1 integrase [2]; [6]): 3.5 µM

Compound: O=C(CC[C@H](NC(=O)c1ccc(O)c(O)c1)C(=O)O)NCCc1ccc(O)c(O)c1 [Example 63, Nα-(3,4-dihydroxybenzoyl)-Nδ-(3-hydroxytyramine) L-glutamic acid]
- IC50 (HIV-1 integrase [2]; [7]): 2.8 µM

Compound: O=C(/C=C/c1ccc(O)c(O)c1)N[C@@H](Cc1ccc(O)cc1)C(=O)NCc1ccc(O)c(O)c1 [Example 64, N-(N′-caffeoyl-L-tyrosyl)-3,4-dihydroxybenzylamine]
- IC50 (HIV-1 integrase [2]; [6]): 3 µM

Compound: N-(N′-caffeoyl-L-tryptophanyl)dopamine [Example 53]
- IC50 (HIV-1 integrase [2]; [6]): 1.5 µM

Compound: N-[N′-(p-hydroxybenzoyl)-L-tryptophanyl]-dopamine [Example 29]
- IC50 (HIV-1 integrase [1]; [4]): 245 µM
